Reference: ChEMBL document CHEMBL1128683, “Identification of 3,5-dihydro-2-aryl-1H-pyrazolo[3,4-c]quinoline-1,4(2H)-diones as novel high-affinity glycine site N-methyl-D-aspartate antagonists” (J Med Chem, 1995)

Target: Glutamate receptor ionotropic, NMDA 1 (Rattus norvegicus, UniProt P35439)
Experiment: Inhibition of [3H]-3 binding to the glycine site on the NMDA receptor in Rat cortical membranes

Compound	IC50
O=c1[nH]c2ccccc2c2c(=O)n(-c3cccc(Cl)c3)[nH]c12	162 nM
Cn1[nH]c2c(=O)[nH]c3ccccc3c2c1=O	2020 nM
COc1ccc(-n2[nH]c3c(=O)[nH]c4cc(Cl)ccc4c3c2=O)cc1	3.3 nM
O=c1[nH]c2ccccc2c2c(=O)n(Cc3ccccc3)[nH]c12	562 nM
O=c1[nH]c2ccccc2c2c(=O)n(-c3ccccc3Cl)[nH]c12	613 nM
Cn1c2c(=O)[nH]c3ccccc3c2c(=O)n1-c1ccccc1	> 100 nM
O=c1[nH]c2ccccc2c2c(=O)n(-c3ccc(Cl)cc3)[nH]c12	138 nM
O=c1[nH]c2ccccc2c2c(=O)n(-c3ccccc3)[nH]c12	135 nM
O=c1[nH]c2cc(Cl)ccc2c2c(=O)n(-c3ccccc3)[nH]c12	16 nM
COc1ccc(-n2[nH]c3c(=O)[nH]c4ccccc4c3c2=O)cc1	87 nM
